How the values were obtained:
[1] = tested on: sand fly Lutzomyia longipalpis; assay: warm body repellence assay with sand flies; type: in vivo; details: for Median of landings: 2 minutes, control 48
Experimental: To test the effects of repellent compounds or compositions disclosed herein on other blood-feeding arthropods, a warm body repellence assay (Krober et. al. (2010). An In Vitro Assay for Testing Mosquito Repellents Employing a Warm Body and Carbon Dioxide as a Behavioral Activator. Journal of the American Mosquito Control Association 26(4): 381-386] was conducted using the sand fly Lutzomyia longipalpis (Diptera: Psychodidae), the principal vector of Leishmania (or leismaniasis) in the Americas.
[…] Fifty L. longipalpis sandflies (male:female ratio 1:1) of 3-7 days old were tested during the scotophase under conditions described for A. gambiae in Example 6. The test cages were lined with filter paper. Reduction in the number of landings by L. longipalpis sand fly females on a warm body treated with different test products compared to the control with solvent (ethanol p.a.) alone was used to evaluate repellence. Tests were conducted in complete darkness using IR LEDs to illuminate the warm body. Landings counted during 2 minutes were normalized by experimental day, cage, and number of females by a mixed linear model before testing for differences.

[2] = tested on: Ixodes ricinus (Ixodidae) nymphs; assay: tick repellence assay on warm glass plate; type: in vivo; details: 10 μg/cm^2; nymphs dropped off or walked down the warm glass plate; control 8
Experimental: The products were tested at a dose of 10 μg/cm^2 on Ixodes ricinus (Ixodidae) nymphs according the protocol described in Krober, T. et al. (2013). A standardised in vivo and in vitro test method for evaluating tick repellents. Pesticide Biochemistry and Physiology 107: 160-168] with the following modifications: The test products (dissolved in ethanol) were allowed to evaporate for 40 s (as in the warm body test with mosquitoes) and the warm glass plates were used up to 250 s after application of the test products for the repellence assay. Four repetitions were made with carvacrol with 3, 4, 4 and 5 nymphs, i.e. with a total of 16 I. ricinus nymphs, of which in total 75% (12) were affected in that they either dropped off or walked down the warm glass plate.
The mixture of carvacrol+cumin alcohol+butyl-cinnamate was tested in two repetitions with 6 and 7 nymphs, i.e. with a total of 13 I. ricinus nymphs, of which 100% were affected in that they either dropped off or walked down the warm glass plate. Of 12 Ixodes ricinus tested in the control (ethanol only) only one tick (8%) was affected (Table 8).

[3] = tested on: A. gambiae females; assay: wind tunnel spatial repellence (landings on treated netting downwind of dirty sock); type: in vivo, Anopheles gambiae; details: for inhibition of landing on treated netting (in words): 38 or 57 μg DEET/cm^2, 38 or 76 μg carvacrol/cm^2; for Mean Landings/5 minutes: control 24.6
Experimental: Carvacrol was tested in a wind tunnel (60×60×120 cm) in order to test for inhibition of the attractiveness of dirty socks, which are otherwise very attractive to the malaria mosquito A. gambiae. Experiments were conducted at 25° C. and 80% relative humidity at a wind speed of 0.5 m·s^−1 during the last 6 hours of scotophase. Dim fluorescent light (4 Lux) was provided from above (Philips TLD, 32 Watts at 36 KHz). A tube (55 mm inner diameter) was covered at its downwind end with mosquito netting which was treated with 38 or 57 μg DEET/cm^2 or 38 or 76 μg carvacrol/cm^2 or the solvent (ethanol) alone (control). Groups of 30 A. gambiae females were released from a release cage at the downwind end of the wind tunnel and their landing behaviour on the mosquito netting was recorded with a high definition video camera. The number of mosquitoes landing on the mosquito netting over 5 minutes was counted.

[4] = tested on: female A. gambiae antennae; assay: GC-coupled electroantennogram (GC-EAG) recording; parameters: species or system Anopheles gambiae; details: compounds eluting from GC of essential oils
Source text: Electrophysiological recordings from whole mosquito antenna: Coupling EAG recordings from an A. gambiae antenna to the effluent of a high-resolution gas chromatographic (GC) column permitted the determination of the elution profiles of biologically active components of essential oils showing repellence. Recordings were made from to 4-9 day-old female mosquitoes. The head was excised at the occipital opening and placed on the reference glass electrode containing Hayes mosquito Ringer [Hayes (1953). Determination of a physiological saline for Aedes aegypti (L.). J Econ Entomol 46: 624-627] mounted in a humidified air-stream (90-98% RH; Guerin and Visser (1980). Electroantennogram Responses of the Carrot Fly, Psila rosae, to Volatile Plant Components. Physiological Entomology 5(2): 111-119] and its antenna exposed to compounds eluting from the GC column (Biessamann et al. (2010). The Anopheles gambiae odorant binding protein 1 (AgamOBP1) mediates indole recognition in the antennae of female mosquitoes. PLoS One 5(3): e9471]. The EAG response was recorded via a glass electrode filled with Kaissling sensillum lymph Ringer [Kaissling (1995). Single unit and electroantennogram recordings in insect olfactory organs. In Experimental Cell Biology of Taste and Olfaction. Current Techniques and Protocols, Spielman AlaB, J. G. (ed), 361-386. Boca Raton, Fla.: CRC Press] brought into contact with the terminal antennal segment whose tip was cut off. Only antennae showing an EAG response at least double the noise level to a 1 ml puff of air over 1 μg geranylacetone in a 5 ml stimulus syringe were used for recording EAG responses to the essential oils.
To conduct a GC-EAG analysis, about 2 μg of an essential oil was injected in 1-3 μL of dichloromethane (DCM) onto an apolar capillary column (95% dimethyl polysiloxan with 5% diphenyl polysiloxan, 15 m long, 0.25 mm i.d., 0.10 μm film thickness; BGB Analytik, Switzerland) installed in a 5300 Carlo Erba Instruments chromatograph. Hydrogen was used as carrier gas with the oven held at 40° C. for 3 minutes then heated up 25° C./min to 230° C. and held at the final temperature for 15 min. The column effluent was split (50:50) between the flame ionization detector (FID) of the chromatograph and the mosquito antennal preparation. The EAG signal was fed into an AC/DC amplifier (×100) via a high impedance preamplifier (×10), recorded on the hard disk of a PC via a 16-bit analogue-digital IDAC4 interface (Syntech, Netherlands) and monitored simultaneously with an oscilloscope (Tektronix 5103, USA). Kovats retention indices (KIs) were calculated for the EAG-active compounds present in the extracts and fractions. FIG. 1 illustrates the results obtained using the GC-EAG analysis. […]

[5] = netting treated with 38 μg/cm^2

Structure (SMILES)	Median of landings ([1]; 20 nmol/cm^2)	Median of landings ([1]; 200 nmol/cm^2)	repellence of sand flies from the warm body (in words) ([1]; 20 and 200 nmol/cm^2)	% affected ticks [2] [%]	inhibition of landing on treated netting (in words) [3]	Mean Landings/5 minutes [3, 5] [Landings/5 minutes]	Mean Landings/5 minutes ([3]; netting treated with 76 μg/cm^2 (500 nmol/cm^2)) [Landings/5 minutes]	EAG response of antenna [4]	Mean Landings/5 minutes ([3]; netting treated with 57 μg/cm^2 (300 nmol/cm^2)) [Landings/5 minutes]
Cc1ccc(C(C)C)cc1O [carvacrol, 5-isopropyl-2-methylphenol]	23	1	as effective as DEET at 20 nmol/cm^2	75	clearly inhibited	0	0	capable of triggering EAG responses	
CCN(CC)C(=O)c1cccc(C)c1 [DEET, N,N-diethyl-3-methylbenzamide, reference compound]	6	5			clearly inhibited	0			0
CC(C)c1ccc(CO)cc1 [cumin alcohol]								capable of triggering EAG responses	

Source: patent US10390536B2, “Methods, compounds and compositions for repelling insects and/or arachnids” (National Center for Scientific Research “Demokritos”, priority 2013, dated 2019)
